One data set has as its target T1, human TLR8 (Homo sapiens, UniProt Q9NR97).
T1 sequence (Q9NR97 27-1041): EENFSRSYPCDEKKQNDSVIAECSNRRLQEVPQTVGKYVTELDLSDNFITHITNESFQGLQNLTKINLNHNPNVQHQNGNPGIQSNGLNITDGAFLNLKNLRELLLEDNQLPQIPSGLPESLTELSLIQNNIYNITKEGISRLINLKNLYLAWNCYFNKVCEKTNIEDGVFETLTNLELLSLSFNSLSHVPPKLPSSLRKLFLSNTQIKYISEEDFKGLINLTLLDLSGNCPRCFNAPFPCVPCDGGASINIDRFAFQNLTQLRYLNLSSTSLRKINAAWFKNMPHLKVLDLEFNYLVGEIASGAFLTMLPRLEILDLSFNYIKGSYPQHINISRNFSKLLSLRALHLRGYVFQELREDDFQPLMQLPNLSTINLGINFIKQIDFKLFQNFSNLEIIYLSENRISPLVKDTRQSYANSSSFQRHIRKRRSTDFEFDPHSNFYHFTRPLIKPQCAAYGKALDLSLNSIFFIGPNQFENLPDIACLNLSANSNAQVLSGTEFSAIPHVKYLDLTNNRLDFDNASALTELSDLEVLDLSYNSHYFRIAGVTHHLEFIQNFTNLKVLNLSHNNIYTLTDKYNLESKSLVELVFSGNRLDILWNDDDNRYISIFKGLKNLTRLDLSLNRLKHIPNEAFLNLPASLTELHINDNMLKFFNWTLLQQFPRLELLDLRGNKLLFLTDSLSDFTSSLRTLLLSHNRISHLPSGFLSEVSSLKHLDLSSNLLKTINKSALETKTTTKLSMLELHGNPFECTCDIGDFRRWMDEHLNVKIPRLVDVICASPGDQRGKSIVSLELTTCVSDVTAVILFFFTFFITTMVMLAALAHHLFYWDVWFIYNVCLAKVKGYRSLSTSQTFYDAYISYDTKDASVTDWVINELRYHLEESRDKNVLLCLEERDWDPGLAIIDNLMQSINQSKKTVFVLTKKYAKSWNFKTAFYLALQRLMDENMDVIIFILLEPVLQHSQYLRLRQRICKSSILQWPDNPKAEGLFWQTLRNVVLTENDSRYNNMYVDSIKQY
The data set can be described thus: HEK293-Blue-hTLR-8 cells assay (SEAP reporter, R848 stimulation). In kind it is cell-based. The conditions noted are these: HEK293-Blue-hTLR8 cells, R848 ligand, 20 hrs incubation; read-out: HEK/hTLR8 IC50. On the procedure:
The following tests were carried out in order to determine the activity of the compounds of formula (I) in HEK293-Blue-hTLR-7/8/9 cells assay.
A stable HEK293-Blue-hTLR-8 cell line was purchased from InvivoGen (Cat.#: hkb-htlr8, San Diego, California, USA). These cells were originally designed for studying the stimulation of human TLR8 by monitoring the activation of NF-κB. A SEAP (secreted embryonic alkaline phosphatase) reporter gene was placed under the control of the IFN-β minimal promoter fused to five NF-κB and AP-1-binding sites. The SEAP was induced by activating NF-κB and. AP-1 via stimulating HEK-Blue hTLR8 cells with TLR8 ligands. Therefore the reporter expression was declined by TLR8 antagonist under the stimulation of a ligand, such as R848, for incubation of 20 hrs. The cell culture supernatant SEAP reporter activity was determined using QUANTI-Blue™ kit (Cat.#: rep-qb1, Invivogen, San Diego, Ca, USA) at a wavelength of 640 nm, a detection medium that tunas purple or blue in the presence of alkaline phosphatase.
HEK293-Blue-hTLR8 cells were incubated at a density of 250,000˜450,000 cells/mL in a volume of 170 μL in a 96-well plate in Dulbecco's Modified Eagle's medium (DMEM) containing 4.5 g/L glucose, 50 U/mL penicillin, […], […], 2 mM L-glutamine, 10% (v/v) heat-inactivated fetal bovine serum with addition of 20 μL test compound in a serial dilution in the presence of final DMSO at 1% and 10 μL of 60 uM R848 in above DMEM, perform incubation under 37° C. in a CO2 incubator for 20 hrs. Then 20 μL of the supernatant from each well was incubated with […] Quanti-blue substrate solution at 37° C. for 2 hrs and the absorbance was read at 620-655 nm using a spectrophotometer. The signalling pathway that TLR8 activation leads to downstream NF-κB activation has been widely accepted, and therefore similar reporter assay was modified for evaluating TLR8 antagonist.

The next data set deals with T2, CYP2D6 (Homo sapiens, UniProt P10635).
T2 construct: tissue BD-Gentest 452117; host or cells: human liver microsomes
T2 sequence (P10635 whole entry): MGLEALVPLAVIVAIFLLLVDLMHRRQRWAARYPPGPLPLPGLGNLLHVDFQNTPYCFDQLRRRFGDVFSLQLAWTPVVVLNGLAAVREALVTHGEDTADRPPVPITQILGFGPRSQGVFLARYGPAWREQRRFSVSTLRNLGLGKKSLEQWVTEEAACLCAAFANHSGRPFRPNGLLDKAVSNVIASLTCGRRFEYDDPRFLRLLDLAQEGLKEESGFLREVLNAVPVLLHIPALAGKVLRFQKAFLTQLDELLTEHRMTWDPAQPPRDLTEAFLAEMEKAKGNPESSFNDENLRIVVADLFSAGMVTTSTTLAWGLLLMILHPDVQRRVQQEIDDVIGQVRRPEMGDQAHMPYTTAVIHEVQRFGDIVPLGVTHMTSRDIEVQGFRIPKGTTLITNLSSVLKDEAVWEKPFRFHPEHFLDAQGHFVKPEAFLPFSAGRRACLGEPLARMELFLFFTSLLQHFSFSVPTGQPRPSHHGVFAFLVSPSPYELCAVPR
Briefly: CYP inhibition assay in human liver microsome. The class given is in vitro ADME. Conditions: liver microsomes, probe dextromethorphan, 10 μM compound, dextromethorphan substrate, percentage inhibition < 0: not or weak inhibitor, read-out: CYP 2D6 inhibition % @10 μM. On the procedure:
This is a high throughput screening assay used for assessment of reversible inhibition of CYP2D6 activity of test compounds in human liver microsome (HLM) in early discovery stage.
10 mM DMSO stock solutions of test compounds were diluted in DMSO to generate 2 mM intermediate stock solution. 250 nL of intermediate stock solution were transferred in duplicate into 3 separate 384 well microtitre plates (assay-ready plates). A mixture of HLM and each substrate was made up. 45 μL of HLM substrate mix was then transferred to each well of an assay ready plate and mixed. The negative (solvent) and positive control (standard inhibitor for CYP 2D6) were included in each assay ready plate. The assay ready plate was warmed to 37° C. in an incubator over 10 minutes. 5μL pre-warmed NADPH regenerating system was added to each incubation well to start the reaction. Final incubation volume was 50 μL. The assay plate then was placed back in the 37° C. incubator. After 10 minutes incubation, incubates were quenched by addition of 50 μL 100% acetonitrile containing internal standards (20 ng/mL D3-Dextrorphan). The supernatants were collected for RapidFire/MS/MS analysis.
RapidFire online solid phase extraction/sample injection system (Agilent) coupled with API4000 triple quadrupole mass spectrometer (AB Sciex) were used for sample analysis. The mobile phase composed of acetonitrile and water supplemented with 0.1% formic acid. A C4 solid phase extraction cartridge is used for sample separation. MS detection is achieved in positive ion MRM mode.
Peak areas for substrate, metabolite and internal standard are determined using the RapidFire integrator software (version 3.6.12009.12296). Peak area ratios (PAR) of metabolite and internal standard (stable-labelled metabolite) are then calculated. The measurement window for each experiment is then defined:
PAR (0% activity)=average PAR for all incubations containing concentrated inhibitor;
Par (100% activity)=average PAR for all incubations containing no inhibitor (DMSO controls);
% Activity (test inhibitor)
=[PAR(test inhibitor)-PAR(0% activity)]/[PAR(100% activity)-PAR(0% activity)];
% Inhibition (test inhibitor)=100-% Activity (test inhibitor).
In general terms: Liver microsomes are vesicles of endoplasmic reticulum, rich in cytochrome P450 enzymes.

IC50 and inhibition data for four compounds are collected here from patent US11952363B2, “Piperazine compounds for the treatment of autoimmune disease” (Hoffmann-La Roche Inc., priority 2018, dated 2024).

SMILES strings stand for the structures.

As a reminder, the inhibition is the drop in the measured response relative to a control, in per cent.

Turning to `C[C@@H]1CN(c2ccc(C#N)c3ncccc23)C[C@H](C)N1CC(=O)N1Cc2ccc(N3CCNCC3)cc2C1` [Example 16, 5-[(3R,5S)-3,5-Dimethyl-4-[2-oxo-2-(5-piperazin-1-ylisoindolin-2-yl)ethyl]piperazin-1-yl]quinoline-8-carbonitrile], the IC50 at human TLR8 was found to be 55 nM. Also, the inhibition at 10 min, 10 µM on CYP2D6 was determined as 2%.

Turning to `CC1CN(c2ccc(C#N)c3ncccc23)CCN1CC(=O)Nc1ccc(N2CCNCC2)cc1` (centres unmarked) [Example 17, 2-[4-(8-Cyano-5-quinolyl)-2-methyl-piperazin-1-yl]-N-(4-piperazin-1-ylpheny)acetamide], the IC50 at human TLR8 amounted to 58 nM. For the same compound, the inhibition at 10 min, 10 µM on CYP2D6 came out at 7%.

For the compound `CC1CN(c2ccc(C#N)c3ncccc23)CCN1CC(=O)Nc1ccc2c(c1)CCNC2` (centres unmarked) [Example 18, 2-[4-(8-Cyano-5-quinolyl)-2-methyl-piperazin-1yl]-N-(1,2,3,4-tetrahydroisoquinolin-6-yl)acetamide], the IC50 at human TLR8 amounted to 40 nM. At CYP2D6, the inhibition at 10 min, 10 µM was determined as 12.5%.

As for `CC1CN(c2ccc(C#N)c3ncccc23)CCN1CC(=O)N1CCC(C2CCN(C)CC2)CC1` (centres unmarked) [Example 19, 5-[3-methyl-4-[2-[4-(1-methyl-4-piperidyl)-1-piperidyl]-2-oxo-ethyl]piperazin-1-yl]quinoline-8-carbonitrile], the IC50 at human TLR8 worked out at 93 nM. Further, the inhibition at 10 min, 10 µM on CYP2D6 was 14.5%.
